Assay results: BindingDB's records for doi:10.1016/j.bmcl.2007.06.017 (Tanabe Research Laboratories Usa, 2007)

Biological target: T1, Oxysterols receptor LXR-beta (Homo sapiens, UniProt P55055)
T1 sequence (P55055 whole entry): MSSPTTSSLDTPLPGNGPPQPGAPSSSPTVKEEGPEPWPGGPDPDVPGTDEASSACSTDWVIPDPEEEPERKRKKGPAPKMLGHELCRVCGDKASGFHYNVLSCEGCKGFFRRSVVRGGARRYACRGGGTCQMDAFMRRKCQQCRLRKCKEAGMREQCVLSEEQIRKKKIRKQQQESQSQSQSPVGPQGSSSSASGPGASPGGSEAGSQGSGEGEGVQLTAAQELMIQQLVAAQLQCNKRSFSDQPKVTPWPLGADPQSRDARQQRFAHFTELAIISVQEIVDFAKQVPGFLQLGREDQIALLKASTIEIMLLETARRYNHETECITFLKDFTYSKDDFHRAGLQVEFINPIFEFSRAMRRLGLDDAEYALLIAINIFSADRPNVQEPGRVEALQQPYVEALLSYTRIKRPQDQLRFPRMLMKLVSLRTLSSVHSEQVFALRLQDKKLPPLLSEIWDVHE
Experiment: HTRF Cofactor Peptide Recruitment Assay
Settings: pH 7.5; 22 °C
Description: Polyhistidine-tagged human LXR ligand-binding domain was mixed with the test compound, biotin-SRC1 peptide, streptavidin-allophycocyanin, and europium labeled anti-polyhistidine antibody in reaction buffer, and the mixture was incubated in a 384-well assay plate format.

- EC50: 230 nM
SMILES: CC(C)(C)OC(=O)n1c(-c2ccc(CCNS(=O)(=O)c3ccc(-c4ccccn4)s3)cc2)cc2ccccc21 [tert-butyl 2-[4-(2-{[5-(pyridin-2-yl)thiophene-2-]sulfonamido}ethyl)phenyl]-1H-indole-1-carboxylate]
